Assay results from patent US12509446B2, “FYN and VEGFR2 kinase inhibitors” (ROTTAPHARM BIOTECH S.R.L., priority 2019, dated 2025).

Columns and labels:
[1] = test system: ADAMTS-5; test: Gene expression in rat articular chondrocytes under IL-1β stimulation, ADAMTS-5; assay type: cell-based; conditions: for ADAMTS-5 gene expression, percentage of inhibitory effect at the highest non toxic concentration: 10 μM, 6 h; for IC50: Rattus norvegicus, Chondrocyte, 6 h incubation
Description: (§1) For gene expression analysis, 10 days after plating, the medium was changed and substituted with DMEM GlutaMAX I 0.4% to synchronize the cells. The cells were then co-treated in DMEM GlutaMAX I 0.4% with different concentrations of the test compounds and […] at a final concentration of 2 ng/ml for 6 h and 24 h. The test compound concentrations used have been chosen on the basis of the toxicity data.
(§2) At the end of the incubation, the supernatant was discarded, the cell were washed with cold PBS1X and scraped with 200 μl of RNA lysis buffer 1X (Nucleic Acid Purification Lysis Solution, Applied Biosystems).
(§3) Total RNA was purified using ABI Prism™ 6100 Nucleic Acid PrepStation (Applied Biosystems) following manufacturer's instructions.
(§4) Total RNA was retrotranscribed using the High-Capacity cDNA Archive Kit (Applied Biosystems-Thermo Fisher Scientific) following manufacturer's instructions.
(§5) The specific probes and primers for RealTime PCR were from Applied Biosystems (Thermo Fisher Scientific) as Assays-on-Demand™, while the probe and primers for the endogenous control 18S was a PDAR (Pre-Developed TaqMan® Assay Reagents—Applied Biosystems-Thermo Fisher Scientific).
(§6) The assays were designed to amplify target cDNA without amplifying genomic DNA.
(§7) Gene expression analysis for IL-1β, IL-6 and ADAMTS-5 were performed at 6 h incubation, while the gene expression analysis for MMP3, MMP13 and COX2 were performed at 24 h incubation.
(§8) For each compound the maximal concentration tested was dependent on the toxicity results obtained on primary rat chondrocytes.
(§9) The data analysis, with the normalisation on the amplified values for the 18S was done following the specific instruction of Applied Biosystems for the relative quantification of gene expression.

[2] = target: VEGFR2 (Homo sapiens (Human), UniProt P35968); test: In vitro VEGFR2 kinase activity assay (Eurofins Cerep); assay type: biochemical; conditions: read-out: VEGFR2 KINASE INHIBITION IC50
Procedure, shortened: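 Contract biochemical kinase assay on human VEGFR2 with inhibitors at 10^−8 to 10^−5 M final (some re-tested from 10^−9 M). Activity expressed as percent of no-compound control; IC50 by non-linear regression of mean replicate inhibition curves.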

[3] = test system: rat primary articular chondrocytes; test: Toxicity analysis (MTT) in rat primary chondrocytes; conditions: for First toxic concentration at 24 h: rat primary chondrocytes
Description: Purified chondrocytes were resuspended in DMEM glutaMAX 10% and plated in a 96X well plate for toxicity analysis and in a 6X well plate for gene expression analysis.
For toxicity analysis cells were then treated with the different compounds for 24 and 48 h. At the end of the incubation time, the medium was removed and was substituted with a mixture 10:1 of DMEM glutaMAX 10%—MTT (2 mg/ml) for 1 h at 37° C. in the cell incubator. After this incubation, the precipitated salt was dissolved with 100 μl of DMSO and the plate was read at 540 nm. The toxicity analysis were performed to decide the maximal non toxic concentration of each compound used in the gene expression assay.

[4] = test system: bovine nasal septum cartilage; test: Inhibition of cartilage degradation (GAG release) induced by IL-1α in a bovine in vitro model; assay type: cell-based; design: key to Bovine cartilage degradation induced by IL-1α, no effect: ne: no effect; conditions: for inhibition at 10 µM / inhibition at 3 µM: read-out: Bovine cartilage degradation induced by IL-1α, % inhibitory effect at max concentration
Description: Nasal septum cartilage was collected from an eight months-old male bovine in a local slaughterhouse.
Tissue was sprayed with ethanol 70% and immediately put in sterile PBS with Antibiotic-Antimycotic stabilized solution (PBS-AASS). It was cut in order to obtain small punches (diameter 2 mm, 1 mm-thick). washed with sterile PBS-AASS, the slices were transferred in a 96X well plate (one piece per well) in DMEM 10%+AASS. 48 h later the cartilage was stimulated in white DMEM+0.1% BSA+AASS with IL-1α […] in the absence or presence of the studied compounds.
The compounds concentration used in this analysis was chosen depending on the toxicity results obtained in rat primary chondrocytes at 48 h of incubation.
After 48 h stimulation, the culture medium was collected and stored at −80° C. The cartilage punches were digested with papain at 65° C. for 2 h in phosphate buffer (0.05M pH 6.5 with 2 mM N-acetil-L-cisteine and 2 mM EDTA).
The glycosaminoglycan (GAG) determination was done by a colorimetric assay with 1,9 dimethyl methylene blue (DMB).
Digested cartilage samples were diluted in PBS-BSA 1%. To 100 μl of diluted samples or standard we added 100 μl DMB 2X. After 5-20 min incubation the samples were read at 590 nm (Titertek Multiscan Plus).
The cartilage degradation induced by IL-1α was expressed as: GAG (medium)/total GAG (medium+cartilage)×100

[5] = target: Fyn (Homo sapiens (Human), UniProt P06241); test: Z′-LYTE in vitro Fyn kinase activity assay; assay type: biochemical; conditions: ATP 50 μM; read-out: FYN KINASE INHIBITION IC50
Procedure, shortened: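 Z′-LYTE FRET format with full-length active Fyn in 50 mM Hepes pH 7.5, 10 mM MgCl2, 1 mM EGTA, 0.01% Brij-35, 1% DMSO final; 60 minutes at 25° C. Percent phosphorylation from 0% and 100% phosphorylation controls; IC50 by non-linear curve fitting of percent inhibition.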

[6] = test system: IL-6; test: Gene expression in rat articular chondrocytes under IL-1β stimulation, IL-6; assay type: cell-based; conditions: for IL-6 gene expression, percentage of inhibitory effect at the highest non toxic concentration: 10 μM, 6 h
Description: as §1, §2, §3, §4, §5, §6, §7, §8, §9

[7] = test system: NF-kB; test: Gene reporter (GR) assay, NF-kB activation after TNFα in JB6 Cl 41-5a (P+) cells; assay type: cell-based, murine; conditions: Mus musculus, JB6 Cl 41-5a, TNFα 2 ng/ml, non toxic concentrations; read-out: Gene reporter (GR) inhibition IC50
Procedure, shortened: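 Murine JB6 Cl 41-5a (P+) cells stably carrying an NF-kB-RE luc2P reporter were pre-treated with compound for 1 h, then stimulated with 2 ng/ml TNFα for 4 h. Luciferase read-out with a paired viability read; quadruplicates.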

[8] = test system: MMP3; test: Gene expression in rat articular chondrocytes under IL-1β stimulation, MMP3; assay type: cell-based; design: key to MMP3 gene expression, no effect: ne: no effect; conditions: for MMP3 gene expression, percentage of inhibitory effect at the highest non toxic concentration: 10 μM; for MMP3 gene expression, percentage of inhibitory effect at the highest non toxic concentration / MMP3 gene expression, no effect: 24 h; for IC50: Rattus norvegicus, Chondrocyte, 24 h incubation
Description: as §1, §2, §3, §4, §5, §6, §7, §8, §9

[9] = test system: IL-1β; test: Gene expression in rat articular chondrocytes under IL-1β stimulation, IL-1β; assay type: cell-based; conditions: for IL-1β gene expression, percentage of inhibitory effect at the highest non toxic concentration: 10 μM, 6 h; for IC50: Rattus norvegicus, Chondrocyte, 6 h incubation
Description: as §1, §2, §3, §4, §5, §6, §7, §8, §9

[10] = test system: MMP13; test: Gene expression in rat articular chondrocytes under IL-1β stimulation, MMP13; assay type: cell-based; conditions: for MMP13 gene expression, percentage of inhibitory effect at the highest non toxic concentration: 10 μM, 24 h
Description: as §1, §2, §3, §4, §5, §6, §7, §8, §9

[11] = test system: COX2; test: Gene expression in rat articular chondrocytes under IL-1β stimulation, COX2; assay type: cell-based; conditions: for COX2 gene expression, percentage of inhibitory effect at the highest non toxic concentration: 10 μM, 24 h
[12] = Rattus norvegicus, Chondrocyte, 24 h incubation

Sequence of Fyn (P06241 whole entry): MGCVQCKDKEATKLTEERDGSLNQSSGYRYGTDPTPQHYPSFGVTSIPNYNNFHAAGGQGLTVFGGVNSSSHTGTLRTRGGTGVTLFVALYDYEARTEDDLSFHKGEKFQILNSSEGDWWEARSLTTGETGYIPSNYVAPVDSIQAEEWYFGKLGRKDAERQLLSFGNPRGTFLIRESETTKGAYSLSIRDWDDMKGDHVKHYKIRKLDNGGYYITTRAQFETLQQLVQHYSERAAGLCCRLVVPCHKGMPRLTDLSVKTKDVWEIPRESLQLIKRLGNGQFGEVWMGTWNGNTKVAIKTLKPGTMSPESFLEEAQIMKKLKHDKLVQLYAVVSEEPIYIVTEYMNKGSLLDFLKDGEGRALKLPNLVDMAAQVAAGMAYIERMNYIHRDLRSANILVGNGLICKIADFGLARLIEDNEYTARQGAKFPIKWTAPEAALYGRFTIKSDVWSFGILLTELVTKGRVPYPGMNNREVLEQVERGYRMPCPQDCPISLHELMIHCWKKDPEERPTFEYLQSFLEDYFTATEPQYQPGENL
Sequence of VEGFR2 (P35968 20-1356): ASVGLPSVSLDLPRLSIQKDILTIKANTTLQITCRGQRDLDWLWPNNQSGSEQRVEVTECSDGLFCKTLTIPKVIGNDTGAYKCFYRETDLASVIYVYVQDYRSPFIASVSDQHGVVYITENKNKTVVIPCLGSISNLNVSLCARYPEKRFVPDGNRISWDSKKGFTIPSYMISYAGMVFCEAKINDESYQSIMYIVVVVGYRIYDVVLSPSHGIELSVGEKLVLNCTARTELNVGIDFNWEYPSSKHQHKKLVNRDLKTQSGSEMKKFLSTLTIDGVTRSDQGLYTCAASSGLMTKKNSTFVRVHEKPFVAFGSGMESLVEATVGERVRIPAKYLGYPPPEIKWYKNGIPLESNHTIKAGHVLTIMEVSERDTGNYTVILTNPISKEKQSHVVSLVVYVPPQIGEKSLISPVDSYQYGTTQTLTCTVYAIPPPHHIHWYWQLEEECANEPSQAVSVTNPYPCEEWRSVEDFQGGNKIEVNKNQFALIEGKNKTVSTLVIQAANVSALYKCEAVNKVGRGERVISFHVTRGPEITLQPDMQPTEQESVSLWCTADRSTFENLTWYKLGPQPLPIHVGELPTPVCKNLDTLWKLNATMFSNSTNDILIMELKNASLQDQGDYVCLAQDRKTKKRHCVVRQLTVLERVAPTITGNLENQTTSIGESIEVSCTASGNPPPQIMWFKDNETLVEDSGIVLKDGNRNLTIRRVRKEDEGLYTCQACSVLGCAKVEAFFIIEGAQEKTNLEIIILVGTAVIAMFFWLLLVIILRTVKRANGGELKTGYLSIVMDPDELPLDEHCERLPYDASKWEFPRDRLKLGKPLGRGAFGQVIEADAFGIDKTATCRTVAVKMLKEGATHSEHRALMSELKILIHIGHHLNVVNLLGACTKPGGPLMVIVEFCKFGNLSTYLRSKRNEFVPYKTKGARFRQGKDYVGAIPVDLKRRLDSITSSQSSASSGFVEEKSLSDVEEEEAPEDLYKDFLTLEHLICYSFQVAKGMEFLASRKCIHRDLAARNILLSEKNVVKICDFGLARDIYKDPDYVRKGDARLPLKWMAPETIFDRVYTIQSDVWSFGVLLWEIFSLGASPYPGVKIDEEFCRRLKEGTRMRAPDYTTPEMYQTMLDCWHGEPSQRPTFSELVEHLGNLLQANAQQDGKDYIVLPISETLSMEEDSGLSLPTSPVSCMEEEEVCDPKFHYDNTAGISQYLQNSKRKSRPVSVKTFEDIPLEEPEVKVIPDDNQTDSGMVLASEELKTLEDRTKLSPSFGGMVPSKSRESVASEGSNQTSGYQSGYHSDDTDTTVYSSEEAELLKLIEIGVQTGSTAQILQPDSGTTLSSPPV

Compound	IC50 [2]	IC50 [5]	ADAMTS-5 gene expression, percentage of inhibitory effect at the highest non toxic concentration [1]	First toxic concentration at 48 h in rat primary chondrocytes [3]	First toxic concentration at 24 h [3]	IL-6 gene expression, percentage of inhibitory effect at the highest non toxic concentration [6]	IC50 [7]	MMP3 gene expression, percentage of inhibitory effect at the highest non toxic concentration [8]	IL-1β gene expression, percentage of inhibitory effect at the highest non toxic concentration [9]	MMP13 gene expression, percentage of inhibitory effect at the highest non toxic concentration [10]	COX2 gene expression, percentage of inhibitory effect at the highest non toxic concentration [11]	IC50 [1]	further results
CC(C)(C#N)c1cc(C(=O)Nc2ccc(F)c(CCc3cc(Nc4cnccn4)[nH]n3)c2)ccn1 [Compound 11, 2-(2-cyanopropan-2-yl)-N-(4-fluoro-3-(2-(5-(pyrazin-2-ylamino)-1H-pyrazol-3-yl)ethyl)phenyl)isonicotinamide]	< 10 nM	21 nM	10 μM 100%	>10 µM	>10 µM	10 μM 100%	785 nM	–	10 μM 100%	–	10 μM 100%	–	inhibition at 10 µM ([4]; Bos taurus): 89%; IC50 [8]: 2200 nM; IC50 [10, 12]: 2400 nM
CS(=O)(=O)c1cccc(C(=O)Nc2ccc(F)c(CCc3cc(Nc4cnccn4)[nH]n3)c2)c1 [Compound 12, N-(4-fluoro-3-(2-(5-(pyrazin-2-ylamino)-1H-pyrazol-3-yl)ethyl)phenyl)-3-(methylsulfonyl)benzamide]	< 10 nM	24 nM	10 μM 57%	10 µM	>10 µM	–	4510 nM	–	–	10 μM 34%	10 μM 63%	–	Bovine cartilage degradation induced by IL-1α, no effect [4]: ne; IC50 ([6]; Rattus norvegicus, Chondrocyte, 6 h incubation): 2600 nM; MMP3 gene expression, no effect [8]: ne; IC50 [9]: 3900 nM
Cc1ccc(NC(=O)c2ccnc(C(C)(C)O)c2)cc1CCc1cc(Nc2cnccn2)[nH]n1 [Compound 5, 2-(2-hydroxypropan-2-yl)-N-(4-methyl-3-(2-(5-(pyrazin-2-ylamino)-1H-pyrazol-3-yl)ethyl)phenyl)isonicotinamide]	< 10 nM	6 nM	–	10 µM	>10 µM	10 μM 89%	3260 nM	–	10 μM 84%	10 μM 32%	10 μM 43%	5500 nM	inhibition at 3 µM ([4]; Bos taurus): 79%; MMP3 gene expression, no effect [8]: ne
CCNC1(c2ccc(C(=O)Nc3ccc(C)c(CCc4cc(Nc5cnccn5)[nH]n4)c3)cc2)CC1 [Compound 4, 4-(1-(ethylamino)cyclopropyl)-N-(4-methyl-3-(2-(5-(pyrazin-2-ylamino)-1H-pyrazol-3-yl)ethyl)phenyl)benzamide]	< 10 nM	21 nM	–	3 µM	>10 µM	10 μM 93%	2230 nM	10 μM 55%	–	10 μM 84%	–	3000 nM	Bovine cartilage degradation induced by IL-1α, no effect [4]: ne; IC50 [9]: 1700 nM; IC50 [11, 12]: 1400 nM

Now from value to molecule, other results behind:

IC50 [2]	IC50 [5]	Compound	ADAMTS-5 gene expression, percentage of inhibitory effect at the highest non toxic concentration [1]	First toxic concentration at 48 h in rat primary chondrocytes [3]	First toxic concentration at 24 h [3]	IL-6 gene expression, percentage of inhibitory effect at the highest non toxic concentration [6]	IC50 [7]	MMP3 gene expression, percentage of inhibitory effect at the highest non toxic concentration [8]	IL-1β gene expression, percentage of inhibitory effect at the highest non toxic concentration [9]	MMP13 gene expression, percentage of inhibitory effect at the highest non toxic concentration [10]	COX2 gene expression, percentage of inhibitory effect at the highest non toxic concentration [11]	IC50 [1]	further results
< 10 nM	8 nM	CCN1Cc2cnc(Nc3cc(CCc4cc(NC(=O)c5cccc(C(F)(F)F)c5)ccc4C)n[nH]3)cc2C1 [Compound 17, N-(3-(2-(5-((2-ethyl-2,3-dihydro-1H-pyrrolo[3,4-c]pyridin-6-yl)amino)-1H-pyrazol-3-yl)ethyl)-4-methylphenyl) -3-(trifluoromethyl)benzamide]	10 μM 62%	>10 µM	>10 µM	10 μM 100%	352 nM	10 μM 92%	10 μM 99%	10 μM 100%	10 μM 96%	–	inhibition at 10 µM ([4]; Bos taurus): 100%
< 10 nM	10 nM	Cc1ccc(NC(=O)c2ccnc(C(C)(C)C#N)c2)cc1CCc1cc(Nc2cnccn2)[nH]n1 [Compound 2, 2-(2-cyanopropan-2-yl)-N-(4-methyl-3-(2-(5-(pyrazin-2-ylamino)-1H-pyrazol-3-yl)ethyl)phenyl)isonicotinamide]	10 μM 94%	>10 µM	>10 µM	10 μM 100%	312 nM	10 μM 92%	10 μM 100%	10 μM 99%	10 μM 100%	–	IC50 ([4]; Bos taurus, head says nM, cells print μM, 48 h stimulation, read-out: Inhibitory effect on bovine cartilage degradation induced by IL-1α, IC50): 800 nM
< 10 nM	99 nM	Cc1ncc(Nc2cc(CCc3cc(NC(=O)c4cccc(C(F)(F)F)c4)ccc3F)n[nH]2)cn1 [Compound 40, N-(4-fluoro-3-(2-(5-((2-methylpyrimidin-5-yl)amino)-1H-pyrazol-3-yl)ethyl)phenyl)-3-(trifluoromethyl)benzamide]	–	10 µM	>10 µM	10 μM 100%	515 nM	–	10 μM 100%	10 μM 100%	10 μM 100%	2300 nM	inhibition at 3 µM ([4]; Bos taurus): 49%; IC50 [8]: 500 nM
